Experiments:
[1] = tested on: CT-26 cells; assay: Anti-tumor response in CT-26 tumor-bearing mice; type: in vivo, BALB/cAnN mice
Excerpt: (§1) This experiment compared the anti-tumor response of tumor-bearing mice to treatment with one of three regimens: monotherapy with a murine anti-mouse PD-1 monoclonal antibody (anti-PD-1), monotherapy with Vorinostat and combination therapy with these two agents administered concurrently.
Tumor-bearing mice for this study were initiated by implanting 3×10^5 log-phase and sub-confluent CT-26 cells on the right lower dorsal flank of 7-8 week old female BALB/cAnN mice with an average body weight of 18 grams. When the mean tumor volume in these mice reached ˜100 cubic mm (60mm^3-150 mm^3) (FIG. 1(A)), the tumor-bearing mice were randomized to 4 treatment groups of 12 mice per group: (1) Isotype control+Vehicle control group;(2) anti-PD-1 +Vehicle control; (3) Vorinostat +Isotype control and; (4) anti-PD-1+Vorinostat. A monoclonal antibody of murine isotype IgG1 against murine PD-1 and isotype control were obtained from internal sources. The isotype control was a mouse monoclonal antibody specific for adenoviral hexon 25 and was of the isotype IgG1. […] Anti-PD-1 was administered to treatment groups 2 and 4 at 10 mg/kg i.p. every 5 days for each of 5 cycles. Vorinostat was administered to treatment groups 3 and 4 at 150 mg/kg every day for 27 days.

[2] = tested on: RENCA cells; assay: Anti-tumor response in RENCA tumor-bearing mice
Excerpt: as §1
Tumor-bearing mice for this study were initiated by implanting 1×10^6 log-phase and sub-confluent RENCA cells on the right lower dorsal flank of 7-8 week old female BALB/cmice with an average body weight of 19 grams. When the mean tumor volume in these mice reached ˜100 cubic mm (65mm^3-140 mm^3) (FIG. 9(A)), the tumor-bearing mice were randomized to 4 treatment groups of 12 mice per group: (1) Isotype control +Vehicle control group;(2) Anti-PD-1 +Vehicle control; (3) Vorinostat+Isotype control and; (4) Anti-PD-1 +Vorinostat. A monoclonal antibody of murine isotype IgG1 against murine PD-1 and isotype control were obtained from internal sources. The isotype control was a mouse monoclonal antibody specific for adenoviral hexon 25 and was of the isotype IgG1. The formulations for each reagent was as follows: Isotype contro1:75 mM NaCl, 10 mM sodium phosphate, 3% sucrose, pH7.3; anti-PD-1: 20 mM sodium acetate, 7% sucrose, pH5.5; and Vorinostat vehicle: 0.5% HPC (hydroxypropylcellulose) with 0.002% SDS (sodium dodecyl sulfate) in sterile water. Anti-PD-1 was administered to treatment groups 2 and 4 at 5 mg/kg i.p. every 5 days for each of 5 cycles. Vorinostat was administered to treatment groups 3 and 4 at 150 mg/kg every day for 29 days.

## O=C(CCCCCCC(=O)Nc1ccccc1)NO [Vorinostat, suberoylanilide hydroxamic acid]
[1]
  effect of Vorinostat on anti-PD-1 anti-tumor activity in the combination treatment arm: did not demonstrate antagonistic effects
[1]; 12 per group, measured through Day 29, anti-PD-1 10 mg/kg i.p. every 5 days x5, Vorinostat 150 mg/kg every day for 27 days
  complete regressions (CR): No CRs
[1]; at Day 30, FIG. 8(B)
  survival: 10%
[2]
  effect of Vorinostat on anti-PD-1 anti-tumor activity in the combination treatment arm: did not demonstrate antagonistic effects
[2]; at Day 30, FIG. 9(B)
  survival: 23%
[2]; monotherapy arms, measured through Day 29
  complete regressions (CRs): No CRs

From patent publication US20180044418A1, “COMBINATION OF A PD-1 ANTAGONIST AND VORINOSTAT FOR TREATING CANCER” (Merck Sharp & Dohme Corp., priority 2016, published 2018)
